# According to patent EP4610271B1, “SELF-ASSEMBLING POLYPEPTIDE AND USE THEREOF” (Success Bio-Tech Co., Ltd., priority 2023, dated 2026):
# What was measured:
# [1] = State of peptide solution (solution or gel) on pH adjustment with NaHCO3; type: physicochemical; conditions: for State of Peptide Under Different pH Conditions: gel: pH at which the peptide is a gel; for State of Peptide Under Different pH Conditions: solution: pH at which the peptide is a solution; for pH needed to stay in solution: typical value, concentration not stated (background, inventor's study)
# Procedure: (§1) Unless otherwise specified, the solutions in this example refer to aqueous solutions prepared using purified water or sterile water as the solvent. Based on the AC-PRVDVRVDP-NH2 provided previously, the peptides AC-KLNLKLNLNL-NH2, AC-PRVDVRVKVRVDP-NH2, and AC-RADMSRADMS-NH2 were screened. The above-mentioned peptides were formulated into a 1 mL 2.5% w/v solution, to which 100 µL of 10-fold concentration PBS buffer was added and thoroughly mixed to achieve a final solution of approximately 1-fold PBS. […] Based on this, a similar sequence with liquid-solid phase transition capability, AC-PRVDVRVRVRVDP-NH2 (PRRVDP13), was further designed. At a concentration of 1% w/v, the pH of the two peptide solutions could be pre-adjusted to a certain level using a dropwise addition of 1% w/v NaHCO3 and shaking, without the peptide solution turning into a gel for several hours. However, at a concentration of 2% w/v, when the pH increased to around 3 using a dropwise addition of 1% w/v NaHCO3 and shaking, the peptide solution quickly turned into a gel. The classical sequence RADA16 and the original sequence PRVDP9 needed to be maintained under acidic conditions even at a lower concentration of 1% w/v to keep them in solution state. Otherwise, the solution would turn into a gel, and the color would turn white as the pH increased.
# [2] = Neutralisation of peptide solution by mixing with DMEM medium, pH measured; type: physicochemical; conditions: for neutralization of acidity by mixing with DMEM medium: 2.5% w/v peptide solution
# Procedure: As mentioned above, peptide solutions with relatively high concentrations (over 2% w/v) cannot be pre-adjusted to neutral pH before mixing with the cell suspension, and the acidity may be harmful to the cells. […] Therefore, despite the acidic nature of the 2.5% concentration solution, PRRVDP13 may still be used as a cell culture scaffold. The experimental methods are as follows. In a centrifuge tube, 1.5 mL of a 2.5% w/v self-assembling peptide solution was mixed with 1.5 mL of DMEM medium, and after gelation, additional medium was added to make a total volume of […], with a final peptide-to-medium ratio of 1:3. Alternatively, 1.5 mL of a 2.5% self-assembling peptide solution was mixed with 1.5 mL of DMEM medium to achieve a peptide-to-DMEM medium ratio of 1:1. The pH value of each group was then measured.
# [3] = Screening of dissolution and gel formation on mixing with PBS or DMEM; type: physicochemical; conditions: 2.5% w/v solution mixed with 10-fold PBS (final about 1-fold) or equal volume of DMEM
# Procedure: as §1
# L929 cells [4] = assay: 3D cell culture in peptide gel, microscopy and Calcein-AM/PI staining; type: cell-based; conditions: L929 cell suspension mixed directly with peptide solution, about 48 hours, FIG. 6
# Procedure: One potential application of ISAPs is to use them as scaffolds for supporting 3D cell culture. To validate their suitability as a 3D cell culture scaffold, L929 cells (purchased from the Kunming Cell Bank of the Chinese Academy of Sciences) that had been cultured for 48-72 hours and were in a vigorous growth phase were digested and then mixed with serum-containing DMEM medium for cell counting. The cell suspension was prepared at a concentration of 1×10^5 cells/mL with serum-containing DMEM medium. The cell suspension was mixed with the peptide in a specific ratio (60 µL:60 µL) and added to a 96-well culture plate. After gelation, 120 µL of serum-containing DMEM medium was added for cell culture. In this example, the ISAP solution was mixed with the cell suspension or cell culture medium to study their biocompatibility.
# To test the biocompatibility of ISAPs, 60 µL of a 2.5% w/v peptide solution was mixed with an equal volume of DMEM medium in a cell culture plate to form a gel. Then, 120 µL of the aforementioned 1×10^5 cells/mL L929 cell suspension was loaded onto the pre-formed gel. 4 and 5. […] After approximately 48 hours of incubation in a cell incubator at an atmosphere of 5% CO2, cells were observed directly using a microscope or observed using a fluorescence microscope following staining with Calcein-AM and PI (Beyotime, C2015S) according to the manufacturer's instructions.
# [5] = Rheometer measurement of gel storage modulus G' and loss modulus G"; type: physicochemical; conditions: 2.5% w/v gel triggered by PBS, compared to RADA16 and PRVDP9, FIGs. 7A-7C
# Procedure: (§2) The experimental methods are as follows. Peptide was prepared as a 1 mL solution with a concentration of 2.5% w/v. 100 µL of a 10-fold concentration PBS buffer was added and thoroughly mixed to make the final solution as approximately 1-fold PBS to trigger gelation. The gel strength, which is related to hemostatic ability, is usually represented by the storage modulus G'. […]. The experimental methods are as follows. 3 mL of a 2.5% w/v solution of each peptide was prepared using water for injection and then 600 µL of a 5-fold concentration PBS buffer was added in to trigger gel formation. A suitable amount of gel was placed on the rheometer testing stage, with the setting of the stress of the rheometer at 1 Pa, and the scanning frequency range from 0.1 to 10 Hz to measure the storage modulus G' and loss modulus G" of the gel. To measure the viscosity of the peptide solutions, each peptide was prepared into a 2.5% w/v solution using water for injection, and a creep scan was performed using a rheometer at shear rates ranging from 0.001S^-1 to 1000S^-1 to obtain viscosity data for each peptide solution, as shown in FIGs. 7D-7F.
# New Zealand rabbits = assay: Liver wound hemostasis model; type: in vivo
# Description: The animal (New Zealand rabbits) was anesthetized by 2% sodium pentobarbital via ear vein injection. The animal was then fixed in a supine position on the operating table. The abdominal fur was shaved, and the area was sterilized. A standard midline incision was made, and the left lobe of liver was exposed by dissecting the liver. A sterile gauze was placed beneath the liver. A 1.0 cm long and 0.3 cm deep wound was created on the liver lobe, and the wound was wiped with gauze. The test sample (approximately 1 mL) was injected deeply onto the wound until the entire wound area was covered. The hemostatic effect was observed and the hemostasis time was recorded.
# L929 cells [6] = assay: Cell proliferation on pre-formed peptide gel (CCK-8 assay); type: cell-based; conditions: gel of 2.5% w/v peptide solution and equal volume of DMEM, about 48 hours, CCK-8, FIGs. 4 and 5
# Procedure: To test the biocompatibility of ISAPs, 60 µL of a 2.5% w/v peptide solution was mixed with an equal volume of DMEM medium in a cell culture plate to form a gel. Then, 120 µL of the aforementioned 1×10^5 cells/mL L929 cell suspension was loaded onto the pre-formed gel. […]. […] The cell proliferation assay was performed after culturing the cells in a cell incubator at an atmosphere of 5% CO2 for approximately 48 hours using a CCK-8 assay kit (Beyotime, C0038). For the PRRVDP13 peptide, the cell suspension was directly mixed with the peptide solution, and after the liquid-to-solid phase transition, cells were evenly distributed within the gel. The methods are as follows. 60 µL of the aforementioned L929 cell suspension of 1×10^5 cells/mL and 60 µL of PRRVDP13 peptide were added to a 96-well culture plate. After gelation, 120 µL of culture medium was added for cell culture. After approximately 48 hours of incubation in a cell incubator at an atmosphere of 5% CO2, cells were observed directly using a microscope or observed using a fluorescence microscope following staining with Calcein-AM and PI (Beyotime, C2015S) according to the manufacturer's instructions.
# [7] = Liquid-to-solid phase transition triggered by PBS; type: physicochemical; conditions: 2.5% w/v solution, about 1-fold PBS, FIG. 8
# Procedure: as §2
State of Peptide Under Different pH Conditions: gel ([1]; concentration 1% w/v),State of Peptide Under Different pH Conditions: solution ([1]; concentration 1% w/v),pH needed to stay in solution [1],neutralization of acidity by mixing with DMEM medium [2],State of Peptide Under Different pH Conditions: gel ([1]; concentration 2% w/v),State of Peptide Under Different pH Conditions: solution ([1]; concentration 2% w/v),dissolution and gel formation [3],"pH of the peptide-DMEM mixture ([2]; 2.5% w/v, same volume ratio (1:1 or 1:3), compared with PRVDP9 and RADA16, FIG. 3)",mechanical properties (storage modulus G') [5],Compound,cell viability within the gel (L929 cells [4]),"time to complete hemostasis (New Zealand rabbits; 1.25% w/v peptide solution with 1 mg/mL NaHCO3, about 1 mL on rabbit liver wound)","time to complete hemostasis (New Zealand rabbits; 2.5% w/v peptide solution, about 1 mL on rabbit liver wound)",bleeding after rinsing off the hydrogel (New Zealand rabbits; surface hydrogel rinsed off with normal saline after 2 minutes of hemostasis),cell proliferation on the peptide gel (L929 cells [6]),liquid-to-solid phase transition ability [7]
"pH ≥ 3.40, gel","pH < 3.40, solution",< 3,relatively more difficult to neutralize,–,–,–,–,–,"CC(=O)N[C@@H](CCCNC(=N)N)C(=O)N[C@@H](C)C(=O)N[C@@H](CC(=O)O)C(=O)N[C@@H](C)C(=O)N[C@@H](CCCNC(=N)N)C(=O)N[C@@H](C)C(=O)N[C@@H](CC(=O)O)C(=O)N[C@@H](C)C(=O)N[C@@H](CCCNC(=N)N)C(=O)N[C@@H](C)C(=O)N[C@@H](CC(=O)O)C(=O)N[C@@H](C)C(=O)N[C@@H](CCCNC(=N)N)C(=O)N[C@@H](C)C(=O)N[C@@H](CC(=O)O)C(=O)N[C@@H](C)C(N)=O [RADA16, AC-RADARADARADARADA-NH2, reference compound]",–,–,–,–,–,–
"pH ≥ 3.50, gel","pH < 3.50, solution",< 3,relatively more difficult to neutralize,–,–,–,–,–,"Ac-PRVDVRVDP-NH2 [PRVDP9, AC-PRVDVRVDP-NH2, reference compound]",–,–,–,–,–,–
"pH ≥ 4.05, gel","pH < 4.05, solution",–,–,"pH ≥ 3.20, gel","pH < 3.20, solution",dissolved easily and formed a good gel,–,–,Ac-PRVDVRVKVRVDP-NH2 [AC-PRVDVRVKVRVDP-NH2],–,–,–,–,–,–
"pH ≥ 6.29, gel","pH < 6.29, solution",–,easily neutralized,"pH ≥ 3.25, gel","pH < 3.25, solution",–,significantly higher,better mechanical properties,"Ac-PRVDVRVRVRVDP-NH2 [PRRVDP13, AC-PRVDVRVRVRVDP-NH2]",majority of cells were viable,≤ 50 s,≤ 50 s,no new bleeding appeared,good proliferation,good liquid-to-solid phase transition ability
